The record followed here is US8637038B2, “Methods for inhibiting allograft rejection” (Rigel Pharmaceuticals, Inc., priority 2011, dated 2014).

Several values for one entry are separate records, joined by “and”; a condition that tells them apart may be missing. Equal values may be shown once. Read-outs that look alike come from different tables or passages of the source.

Experiment [1] concerns JAK1/2. The experiment in a line: IFN-γ U937 ICAM-1 surface expression. It is filed as cell-based. Particulars: for EC50: Homo sapiens. As to the method:
The activity of Compound III and Compound I was assessed in a panel of cell-based assays. Compound III and Compound I are selective inhibitors of JAK1/3-dependent signaling. Data for a non-selective JAK inhibitor (Compound IV) is shown for reference. Mixed lymphocyte reactions (MLRs) were performed by incubating freshly prepared naive human peripheral blood lymphocytes from one donor with CD80+/CD86+ mature Dendritic Cells derived from a different donor for 5 days. The percentage of CD3+/CD71+ (anti-CD3-APC, Clone HIT3a, anti-CD 71-FITC, Clone M-A712; BD Biosciences, San Jose, Calif.) proliferating cells was assessed by fluorescence-activated cell sorting (FACS; BD Bioscience). Interleukin-2 (IL-2)-dependent human primary T cell proliferation was assessed using CellTiter-Glo® Luminescent Cell Viability Assay (Promega, Madison, Wis.). STAT phosphorylation induced by different cytokines in human primary T cells was measured by intracellular FACS analysis (anti-pY694-STAT5 AlexaFluor488, anti-pY701-STAT1 AlexaFluor488, and anti-pY693-STAT4 AlexaFluor488; BD Biosciences). STAT phosphorylation induced by different cytokines was performed in whole blood after red blood cell lysis (Lyse/Fix buffer, BD Biosciences) and methanol permeabilization. Interferon-γ (IFN-γ) signaling was assessed in the U937 monocytic cell line by measuring ICAM-1 surface expression by FACS (ICAM-1-APC, BD Bioscience).

Experiment [2] relates to Syk. The experiment in a line: Anti-IgM Ramos phospho-Erk. It is filed as cell-based. The following applies: Homo sapiens, read-out: Anti-IgM Ramos phospho-Erk EC50. As to the method:
(§1) The erythropoietin (EPO)-dependent survival of cultured human erythroid progenitor cells (CHEPs) was determined using CellTiter-Glo® Luminescent Cell Viability Assay (Promega). Human primary T cell activation was assessed by measuring IL-2 production by ELISA (R&D Systems, Minneapolis, Minn., USA) following plate-bound anti-CD3 and anti-CD28 stimulation (Anti-Human CD3; BD Biosciences; Anti-Human CD28; Immunotech; Prague, Czech Republic). The enzymatic activity of tryptase released by human cultured mast cells (CHMCs) upon stimulation with IgE was quantified by cleavage of the synthetic fluorescent peptide substrate Z-Ala-Lys-Arg-7-amino-4-methylcoumarin (MP Biomedicals, Solon, Ohio, USA) in tryptase buffer. B-cell receptor-dependent Erk phosphorylation was measured in Ramos cells by intracellular FACS (anti-pT202/pY204-ERK1/2-AlexaFluor488; BD Biosciences). Cell proliferation assays were performed using A549 epithelial cells and H1299 lung carcinoma cells using nuclear staining to measure cell numbers (4′6-diamidino-2-phenylindole, dihydrochloride (DAPI; Invitrogen, Darmstadt, Germany)).

For experiment [3], the system named is BN-to-Lew heterotopic heart transplantations. The experiment is described as follows: Graft survival study after 10-day treatment, with combination index. It is filed as in vivo, rat. Particulars: no medication 7±0 days. The source says: Male Brown Norway (BN) and Lewis (Lew) rats weighing 350 g were purchased from Harlan (Indianapolis, Ind.) and were housed under conventional conditions. All animals were fed standard rat chow and water ad libitum and received humane care in compliance with the Principles of Laboratory Animal Care formulated by the National Society for Medical Research and the Guide for the care and Use of Laboratory Animals published by the National Institutes of Health (National Institutes of Health publication No. 85-23, revised 1985). Allogeneic (BN-to-Lew) and syngeneic (Lew-to-Lew) heterotopic heart transplantations were performed as described previously (Ono et al., J. Thorac. Cardiovasc. Surg. 57:225-229, 1969). In brief, rats were anaesthetized using 2% isoflurane. The donor received an intravenous bolus of 500 I.U. heparin. Cardiac arrest was achieved using 20 ml Bretschneider solution (Custodiol, Dr. F. Koehler Chemie, Bensheim, Germany). […] Heart-beating score was assessed directly after transplantation for each animal from score 0 (no palpable contraction) to 4 (strong and regular contraction). Only animals with beating scores of 4 were included into the study.
Compound I and Compound III were provided by Rigel (South San Francisco, Calif.) and Tacrolimus was provided by Astellas (Munich, Germany). All drugs were administrated orally each in two different concentrations: Compound I LD (15 mg/kg BID; n=6) and HD (60 mg/kg BID; n=6); Compound III LD (5 mg/kg BID; n=6) and HD (20 mg/kg BID; n=6); Tac LD (1 mg/kg QD; n=6) and HD (4 mg/kg QD; n=6). Administration of all drugs was performed every day at the same time points. Tacrolimus was applied only once a day (QD) every 24 hours. During administration of Compound I (BID) and Compound III (BID) a 12 hour pause was kept in between each drug application.
BN-to-Lew heterotopic heart transplantations were performed. Recipient animals were treated for 10 days according to Table 1 (10 day survival study group) and graft survival was monitored by daily palpation of the beating donor heart through the abdominal wall. Scoring was assessed according to heart-beating score of 0 to 4. The time of rejection was defined as the last day of palpable cardiac contractions and graft rejection was confirmed by laparotomy.
The median-effect principle of Chou (in Synergism and Antagonism in Chemotherapy, Chou and Rideout, eds, pp. 61-102, Academic Press, 1991) is based on the premise that the effect of each agent is related to its dose and, therefore, can be calculated using the following equation: (fa/fu)=(D/Dm)m, where fa and fu represent the fractions of the system that are affected (% inhibition or rather days of survival beyond controls) and unaffected (1−fa), respectively, by the drug at dose D. Full protection (fa=1) is defined as at least a 28-day survival of allografts. Dm is the dose required for 50% inhibition (ED50), the median effect (m) is a coefficient that describes the sigmoidicy of the dose-effect curve. The interaction between two drugs is assessed by the combination index (CI) equation for the doses to achieve x % inhibition:
[formula] for the mutually nonexclusive case, where each drug has a different mode of action. A computer software program was used to determine the dose-effect parameters (Dm, m, and r), and the CI values (CalcuSyn, Biosoft, Cambridge, United Kingdom).
Graft survival was monitored by daily palpation of the beating donor heart through the abdominal wall and treatment of animals was stopped after 10 days.

The subject of experiment [4] is A549 epithelial cells. The experiment in a line: A549 proliferation. It is filed as cell-based. The following applies: Homo sapiens. As to the method:
as §1

[5] abbreviates: HD (Compound I 60 mg/kg BID, Compound III 20 mg/kg BID, Tac 4 mg/kg QD) for 10 days.
Setting [6] is: LD (Compound I 15 mg/kg BID, Compound III 5 mg/kg BID, Tac 1 mg/kg QD) for 10 days.

In the case of `COc1cc(Nc2ncc(C)c(Nc3ccc4oc(=O)[nH]c4c3)n2)cc(C)c1C` [Compound III, 5-(2-(3-methoxy-4,5-dimethylphenylamino)-5-methylpyrimidin-4-ylamino)benzol[d]oxazol-2-(3H)-one], the “inhibition of JAK1/2-dependent ICAM-1 expression in U937 cells in response to IFN-γ” value in experiment [1] is reported as “limited inhibition”. Also, the EC50 in experiment [1] (U-937, read-out: IFN-γ U937 ICAM-1 EC50) came to 791 ± 352 nM; in experiment [2], 1280 ± 190 nM; in experiment [4] (A549, read-out: A549 proliferation EC50) it was 5420 ± 3040 nM. In addition, the “graft survival, mean” value was 20 ± 4 days and 20 ± 2 days in experiment [3] (setting [5]); 13 ± 2 days in experiment [3] (setting [6]).
For `COc1cc(Nc2ncc(C)c(Nc3ccc4oc(=O)[nH]c4c3)n2)cc(C)c1F` [Compound I, 5-(2-(4-fluoro-3-methoxy-5-methylphenylamino)-5-methylpyrimidin-4-ylamino)benzo[d]oxazol-2(3H)-one], the “inhibition of JAK1/2-dependent ICAM-1 expression in U937 cells in response to IFN-γ” value in experiment [1] was “limited inhibition”. The EC50 came to 417 ± 211 nM in experiment [1] (U-937, upstream kinases JAK1/2, read-out: IFN-γ U937 ICAM-1 EC50); 1440 ± 586 nM in experiment [2] (upstream kinase Syk); 1860 ± 251 nM in experiment [4] (A549, upstream kinases Multiple, read-out: A549 proliferation EC50). The “graft survival, mean” value was 22 ± 5 days and 22 ± 6 days in experiment [3] (setting [5]); 15 ± 3 days in experiment [3] (setting [6]).
